Measurements published in patent publication US7691965B2, “Helical synthetic peptides that stimulate cellular cholesterol efflux” (The Regents of the University of California, priority 2002, dated 2010).
Where a SMILES comes first, the peptide text is derived from it.

Key:
[1] = Relative lipid binding affinity by surface balance technique (monolayer exclusion pressure); format: physicochemical; conditions: for Monolayer exclusion pressure: surface balance technique
Text: (§1) Relative Lipid Binding Affinity, Hydrophobicity, and Amphiphilicity of Synthetic Peptides—In some experiments, the relative lipid binding affinity of unique peptides was quantified using a surface balance technique (Gillotte, K L. et al., J. Biol. Chem., 274:2021-2028 (1999)). For routine analyses, a turbid solution of dimyristoylphosphatidylcholine (DMPC) was used to assess the relative capacity of synthetic peptides to solubilize phospholipid as described (Palgunachari, M. N. et al., Arterioscler. Thromb. Vasc. Biol., 16:328-338 (1996); McLean, L. R. and Hagaman, K. A., Biochim. Biophys. Acta, 1167:289-295 (1993)). The DMPC was used at a final concentration of 0.08 mg/ml in 10 mM Tris-saline (pH 7.4). The final weight ratio of peptides relative to DMPC was 1:1. The absorbance (400 nm) of samples was monitored continuously over a period of 30 min at 25° C. Hydrophobicity of helical peptides was calculated using the consensus scale (Eisenberg D., Annu. Rev. Biochem., 53:593-623 (1984)). The hydrophobic moment (kcal/mol) of synthetic peptides, which is a measure of helix amphiphilicity, was calculated as described by Eisenberg et al. (Eisenberg, D. et al., Nature, 299:371-374 (1982)).

[2] = DMPC clearance assay (solubilization of a turbid phospholipid solution); format: physicochemical
Text: as §1, with “Peptides-In” for “Peptides—In”, “[…].,” for “Hagaman, K. A.,”

ABCA1 [3] = molecular target: T1, ABCA1 (Mus musculus, UniProt P41233); test: Cellular cholesterol efflux from [3H]cholesterol-labeled J774 macrophages with and without cAMP analog; format: cell-based; parameters: endogenous in cells; host or cells: J774 macrophages treated with a cAMP analog (CPT-cAMP or 8-bromo-cAMP); conditions: for concentration at which cholesterol efflux reached maximal levels: cAMP-treated J774 cells; for ABCA1-dependent cholesterol efflux (result in words): lipid-free acceptor, J774 macrophages with vs without cAMP analog
T1 sequence (P41233 whole entry): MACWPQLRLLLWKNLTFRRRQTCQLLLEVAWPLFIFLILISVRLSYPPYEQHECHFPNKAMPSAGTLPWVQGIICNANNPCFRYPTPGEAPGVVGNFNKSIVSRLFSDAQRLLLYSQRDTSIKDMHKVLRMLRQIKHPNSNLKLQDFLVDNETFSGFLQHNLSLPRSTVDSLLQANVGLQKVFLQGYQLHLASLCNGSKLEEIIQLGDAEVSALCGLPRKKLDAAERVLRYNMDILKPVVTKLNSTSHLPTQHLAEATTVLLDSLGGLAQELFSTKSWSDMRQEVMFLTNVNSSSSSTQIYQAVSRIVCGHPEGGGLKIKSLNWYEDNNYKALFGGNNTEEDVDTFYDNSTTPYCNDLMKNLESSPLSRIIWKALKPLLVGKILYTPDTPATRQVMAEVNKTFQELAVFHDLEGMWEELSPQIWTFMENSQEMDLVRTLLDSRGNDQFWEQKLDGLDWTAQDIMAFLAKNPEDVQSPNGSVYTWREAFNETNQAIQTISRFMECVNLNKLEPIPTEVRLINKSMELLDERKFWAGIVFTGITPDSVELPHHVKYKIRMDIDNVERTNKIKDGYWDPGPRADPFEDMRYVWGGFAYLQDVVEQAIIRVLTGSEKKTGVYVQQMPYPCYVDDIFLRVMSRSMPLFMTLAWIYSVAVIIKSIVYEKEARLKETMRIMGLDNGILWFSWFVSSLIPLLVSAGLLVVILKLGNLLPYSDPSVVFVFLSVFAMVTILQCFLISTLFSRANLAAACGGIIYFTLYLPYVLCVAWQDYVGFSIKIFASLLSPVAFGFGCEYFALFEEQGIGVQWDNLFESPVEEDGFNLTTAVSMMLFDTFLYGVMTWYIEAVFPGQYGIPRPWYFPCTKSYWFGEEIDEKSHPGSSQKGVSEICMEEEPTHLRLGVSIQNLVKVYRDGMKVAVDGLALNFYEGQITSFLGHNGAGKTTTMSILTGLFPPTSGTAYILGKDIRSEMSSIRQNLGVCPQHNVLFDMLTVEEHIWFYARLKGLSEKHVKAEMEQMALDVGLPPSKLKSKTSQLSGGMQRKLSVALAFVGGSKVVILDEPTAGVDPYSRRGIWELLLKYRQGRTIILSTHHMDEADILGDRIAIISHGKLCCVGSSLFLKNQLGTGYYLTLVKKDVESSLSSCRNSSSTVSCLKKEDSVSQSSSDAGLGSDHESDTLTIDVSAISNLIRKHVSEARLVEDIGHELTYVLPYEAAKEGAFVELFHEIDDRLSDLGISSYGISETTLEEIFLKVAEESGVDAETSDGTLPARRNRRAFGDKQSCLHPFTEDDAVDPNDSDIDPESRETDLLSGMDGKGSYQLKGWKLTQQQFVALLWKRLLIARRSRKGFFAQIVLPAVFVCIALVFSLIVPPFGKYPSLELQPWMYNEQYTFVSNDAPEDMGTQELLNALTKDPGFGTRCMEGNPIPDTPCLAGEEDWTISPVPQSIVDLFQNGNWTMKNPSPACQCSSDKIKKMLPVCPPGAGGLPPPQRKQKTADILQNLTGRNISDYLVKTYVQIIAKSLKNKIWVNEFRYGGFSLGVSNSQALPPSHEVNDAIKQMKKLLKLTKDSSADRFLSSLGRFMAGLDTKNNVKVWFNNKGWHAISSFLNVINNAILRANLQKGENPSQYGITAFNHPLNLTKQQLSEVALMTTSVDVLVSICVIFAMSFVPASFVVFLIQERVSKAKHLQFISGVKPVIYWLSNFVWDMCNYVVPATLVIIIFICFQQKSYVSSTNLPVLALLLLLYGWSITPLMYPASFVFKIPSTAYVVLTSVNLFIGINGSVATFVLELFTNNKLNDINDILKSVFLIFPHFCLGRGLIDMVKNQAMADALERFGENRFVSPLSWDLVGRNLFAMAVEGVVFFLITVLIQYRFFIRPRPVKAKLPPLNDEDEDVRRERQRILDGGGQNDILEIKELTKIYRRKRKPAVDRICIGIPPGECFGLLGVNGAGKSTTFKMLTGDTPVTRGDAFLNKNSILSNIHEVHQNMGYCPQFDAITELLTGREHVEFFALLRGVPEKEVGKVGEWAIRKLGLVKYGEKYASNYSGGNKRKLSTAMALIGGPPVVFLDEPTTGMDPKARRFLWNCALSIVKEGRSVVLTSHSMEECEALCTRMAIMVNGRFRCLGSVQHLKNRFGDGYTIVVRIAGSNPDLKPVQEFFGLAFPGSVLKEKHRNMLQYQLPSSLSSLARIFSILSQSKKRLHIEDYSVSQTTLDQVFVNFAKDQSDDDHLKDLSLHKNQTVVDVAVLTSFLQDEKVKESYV
Text: Suitable cholesterol efflux assays are described in, e.g., Bielicki, J. K and Oda, M. N., Biochemistry, 41:2089-2096 (2002); Jia, Z. et al., Biochem. Biophys. Res. Common., 297:206-213 (2002). In some embodiments, a polypeptide known to mediate cholesterol efflux (e.g., helix 9/10 of Apo A-I) is used to screen for additional mediators of cholesterol efflux in a cell based assay. For example, cell lines in which cholesterol efflux can be enhanced using a cAMP analog that up-regulates ABCA1 protein expression (e.g., J774 macrophages) can conveniently be used to assess the ability of an Apo A-I, Apo A-II, Apo A-IV, Apo E, Apo C-I, Apo C-II, Apo C-III, or Serum Amyloid A peptide to mediate cholesterol efflux. The cells are incubated with labeled cholesterol (e.g., [^3H]cholesterol) under conditions appropriate for cholesterol uptake by the cells. cAMP or cAMP analogs (e.g., CPT-cAMP) is incubated with the cells for a suitable time before the initiation of cellular cholesterol efflux, i.e., prior to contacting the cells with helix 9/10 of Apo A-I or the test compound. Measurement of labeled cholesterol appearing in the medium is used to determine the cholesterol efflux mediating activity of the test compound.
Cellular Cholesterol Efflux Protocol—J774 macrophages were used to assess the cholesterol efflux properties of synthetic amphipathic α-helical peptides (Bielicki, J. K and Oda, M. N., Biochemistry, 41:2089-2096 (2002); Jia, Z. et al., Biochem. Biophys. Res. Common., 297:206-213 (2002)). This cell line was chosen because cholesterol efflux can be enhanced using a cAMP analog that up-regulates ABCA1 protein expression. The cells were seeded onto 24-well culture plates and labeled for 48 h with [^3H]cholesterol in RPMI 1640 supplemented with 1% fetal bovine serum. The cAMP analog CPT-cAMP was added (0.3 mM, final concentration) to the cells at least 12 h before the initiation of cellular cholesterol efflux. Synthetic peptides in lipid-free form were added to cells in serum-free RPMI. The lipid-free form of full-length recombinant apoA-I was used as a positive control to define apparent ABCA1-dependent cholesterol efflux in the presence and absence of cAMP stimulation. Efflux results were expressed as a percentage of the initial cellular [^3H] appearing in the medium as a function of time subtracting the background efflux obtained using serum-free medium alone.

ABCA1 [4] = molecular target: T1, ABCA1; test: ABCA1 stabilization: immunoblot of ABCA1 protein in J774 macrophage membranes after cAMP withdrawal; format: cell-based; parameters: J774 macrophages were used to assess relative ABCA1 protein levels in the presence and absence of synthetic peptides; endogenous in cells; host or cells: J774 macrophages treated with a cAMP analog (CPT-cAMP or 8-bromo-cAMP); conditions: 20 μg/ml peptide, 6 h without cAMP, J774 macrophages
Protocol: J774 macrophages were incubated (18 h) with 0.5 mM 8-bromo-cAMP in medium containing 0.1% bovine serum albumin to up-regulate ABCA1 protein expression. Washed cells were subsequently exposed for 6 h to bovine serum albumin medium with (+) or without (−) 8-bromo-cAMP and the indicated synthetic peptides (20 μg/ml). None refers to no peptides. The cellular membrane content of ABCA1 protein was measured by immunoblot analysis.
ABCA1 Stabilization—J774 macrophages were used to assess relative ABCA1 protein levels in the presence and absence of synthetic peptides. Cells were grown in 10% fetal bovine serum, extensively rinsed, and incubated (18 h) with Dulbecco's modified Eagle's medium containing 0.1% bovine serum albumin plus the cAMP analog 8-bromo-cAMP. Cells were next exposed to synthetic peptides or serum-free medium in the absence of the cAMP stimulus to evaluate whether ABCA1 protein was stabilized or degraded. Relative levels of ABCA1 protein were assessed by immunoblot analysis of cell membranes (Oram, J. F. et al., J. Biol. Chem., 278:52379-52385 (2003)). ABCA1 was visualized using an enhanced chemiluminescence detection assay.
To assess ABCA1 stabilization, J774 macrophages were treated with a cAMP analog to up-regulate ABCA1 protein expression and then incubated for 6 h without cAMP. In the absence of inducer, ABCA1 protein is rapidly degraded in these cells (FIG. 9). […] Thus, it appears that the helical combinations that stimulate cholesterol efflux also stabilize the ABCA1 transporter.

ABCA1 [5] = molecular target: T1, ABCA1; test: as above; format: cell-based; parameters: J774 macrophages were used to assess relative ABCA1 protein levels in the presence and absence of synthetic peptides; endogenous in cells; host or cells: J774 macrophages treated with a cAMP analog (CPT-cAMP or 8-bromo-cAMP); conditions: concentration dependence studies, J774 macrophages

| SMILES | Monolayer exclusion pressure [1] [dynes/cm] | DMPC clearance [2] | potency in mediating ABCA1-dependent cholesterol efflux relative to the 1/9 chimera (ABCA1 [3]; FIGS. 2B versus 3C) [fold] | concentration giving maximal ABCA1 stabilization and cholesterol efflux (ABCA1 [3]; both ABCA1 stabilization and cholesterol efflux) [µg/mL] | concentration at which cholesterol efflux reached maximal levels (ABCA1 [3]) [µg/mL] | ABCA1-dependent cholesterol efflux (result in words) (ABCA1 [3]) | ABCA1 stabilization (result in words) (ABCA1 [4]) | lowest concentration that prevented ABCA1 degradation (ABCA1 [5]) [µg/mL] | lipid binding affinity (surface balance technique), result in words [1] |
| --- | --- | --- | --- | --- | --- | --- | --- | --- | --- |
| CC(=O)N1CCC[C@H]1C(=O)N[C@@H](C)C(=O)N[C@@H](CC(C)C)C(=O)N[C@@H](CCC(=O)O)C(=O)N[C@@H](CC(=O)O)C(=O)N[C@@H](CC(C)C)C(=O)N[C@@H](CCCNC(=N)N)C(=O)N[C@@H](CCC(N)=O)C(=O)NCC(=O)N[C@@H](CC(C)C)C(=O)N[C@@H](CC(C)C)C(=O)N1CCC[C@H]1C(=O)N[C@H](C(=O)N[C@@H](CC(C)C)C(=O)N[C@@H](CCC(=O)O)C(=O)N[C@@H](CO)C(=O)N[C@@H](Cc1ccccc1)C(=O)N[C@@H](CCCCN)C(=O)N[C@H](C(=O)N[C@@H](CO)C(=O)N[C@@H](Cc1ccccc1)C(=O)N[C@@H](CC(C)C)C(=O)N[C@@H](CO)C(=O)N[C@@H](C)C(=O)N[C@@H](CC(C)C)C(=O)N[C@@H](CCC(=O)O)C(=O)N[C@@H](CCC(=O)O)C(=O)N[C@@H](Cc1ccc(O)cc1)C(=O)N[C@H](C(=O)N[C@@H](CCCCN)C(=O)N[C@@H](CCCCN)C(=O)N[C@@H](CC(C)C)C(=O)N[C@@H](CC(N)=O)C(N)=O)[C@@H](C)O)C(C)C)C(C)C [Helical peptide 9/10] (Ac-PALEDLRQGLLPVLESFKVSFLSALEEYTKKLN-NH2) | 36 | + | 2 | 10 to 25 | 25 | stimulated cholesterol efflux in an ABCA1-dependent manner | stabilized cellular ABCA1 protein to levels comparable with those observed when cells were exposed continuously to cAMP | 10 | – |
| CC(=O)N[C@@H](CC(C)C)C(=O)N[C@@H](CCCCN)C(=O)N[C@@H](CC(C)C)C(=O)N[C@@H](CC(C)C)C(=O)N[C@@H](CC(=O)O)C(=O)N[C@@H](CC(N)=O)C(=O)N[C@@H](Cc1c[nH]c2ccccc12)C(=O)N[C@@H](CC(=O)O)C(=O)N[C@@H](CO)C(=O)N[C@H](C(=O)N[C@H](C(=O)N[C@@H](CO)C(=O)N[C@H](C(=O)N[C@@H](Cc1ccccc1)C(=O)N[C@@H](CO)C(=O)N[C@@H](CCCCN)C(=O)N[C@@H](CC(C)C)C(=O)N[C@@H](CCCNC(=N)N)C(=O)N[C@@H](CCC(=O)O)C(=O)N[C@@H](CCC(N)=O)C(=O)N[C@@H](CC(C)C)C(=O)NCC(=O)N1CCC[C@H]1C(=O)N[C@@H](C)C(=O)N[C@@H](CC(C)C)C(=O)N[C@@H](CCC(=O)O)C(=O)N[C@@H](CC(=O)O)C(=O)N[C@@H](CC(C)C)C(=O)N[C@@H](CCCNC(=N)N)C(=O)N[C@@H](CCC(N)=O)C(=O)NCC(=O)N[C@@H](CC(C)C)C(=O)N[C@@H](CC(C)C)C(N)=O)[C@@H](C)O)[C@@H](C)O)C(C)C [Helical peptide 1/9] (Ac-LKLLDNWDSVTSTFSKLREQLGPALEDLRQGLL-NH2) | 31 | + | – | – | 50 | stimulated cholesterol efflux in the absence and presence of CAMP stimulation similar to full-length apoA-I | stabilized cellular ABCA1 protein to levels comparable with those observed when cells were exposed continuously to cAMP | 10 | identical |
| CC(=O)N1CCC[C@H]1C(=O)N[C@@H](C)C(=O)N[C@@H](CC(C)C)C(=O)N[C@@H](CCC(=O)O)C(=O)N[C@@H](CC(=O)O)C(=O)N[C@@H](CC(C)C)C(=O)N[C@@H](CCCNC(=N)N)C(=O)N[C@@H](CCC(N)=O)C(=O)NCC(=O)N[C@@H](CC(C)C)C(=O)N[C@@H](CC(C)C)C(=O)N[C@@H](CC(C)C)C(=O)N[C@@H](CCCCN)C(=O)N[C@@H](CC(C)C)C(=O)N[C@@H](CC(C)C)C(=O)N[C@@H](CC(=O)O)C(=O)N[C@@H](CC(N)=O)C(=O)N[C@@H](Cc1c[nH]c2ccccc12)C(=O)N[C@@H](CC(=O)O)C(=O)N[C@@H](CO)C(=O)N[C@H](C(=O)N[C@H](C(=O)N[C@@H](CO)C(=O)N[C@H](C(=O)N[C@@H](Cc1ccccc1)C(=O)N[C@@H](CO)C(=O)N[C@@H](CCCCN)C(=O)N[C@@H](CC(C)C)C(=O)N[C@@H](CCCNC(=N)N)C(=O)N[C@@H](CCC(=O)O)C(=O)N[C@@H](CCC(N)=O)C(=O)N[C@@H](CC(C)C)C(=O)NCC(N)=O)[C@@H](C)O)[C@@H](C)O)C(C)C [Helical peptide 9/1] (Ac-PALEDLRQGLLLKLLDNWDSVTSTFSKLREQLG-NH2) | – | + | – | – | – | stimulated cholesterol efflux in an ABCA1-dependent manner | retained ABCA1 stabilization activity | – | – |
